The structures appear in SMILES notation. Bounds are passed on as bounds.

Data set [1] relates to panelists. Kind of data set: Taste evaluation of sweetness against sucrose solutions, Example 2 (compound 1 with Mogroside V). Format: in vivo, human. The note with it: for sweetness, equally sweet to sucrose in acidic water: two panelists. The method, then: (§1) Ingredients were added to acidic water or acidic water with compound 1 while stirring until solids were visibly dissolved and the sample was poured into a glass bottle and stored at 4° C.
(§2) Taste tests were carried out with two panelists. Bottles were removed from the refrigerator and about 25 ml of beverage was poured into 4 oz-plastic cups. Panelists were given mineral water to rinse their mouth before tasting and between tasting different samples. Unsalted crackers were also given to panelists to eat followed by rinsing their mouth with mineral water before tasting the next sample. The sucrose solutions in Table 4, a sample of Mogroside V in acidic water and a sample of compound 1 and Mogroside V in acidic water were given to panelists. Panelists were asked to evaluate the sweetness of samples against 7%, 8%, 9%, and 10% sucrose solution and describe the difference of taste profile. Panelists were instructed to sip, evaluate the sweetness, and then spit the samples in cups provided for that purpose.

Data set [2] deals with panelists. In words: Taste evaluation of sweetness against sucrose solutions, Example 3 (compound 1 with Rebaudioside A). Format: in vivo, human. Particulars: for sweetness, equally sweet to sucrose in acidic water: two panelists. The procedure: as §1
as §2, with “Rebaudioside A” for “Mogroside V”, “differences in the” for “difference of”, “profiles.” for “profile.”

Data set [3] concerns panelists. Kind of data set: Taste evaluation of sweetness against sucrose solutions, Example 1 (compound 1 with Rebaudioside M). Format: in vivo, human. The method, then: as §1
Taste tests were carried out with two panelists. Bottles were removed from the refrigerator and about 25 ml of beverage was poured into 4 oz-plastic cups. Panelists were given mineral water to rinse their mouth before tasting and between tasting different samples. Unsalted crackers were also given to panelists to eat followed by rinsing their mouth with mineral water before tasting the next sample.
First, two panelists assessed the sweetness of 5 ppm of compound 1 in acidic water against 1.5% sucrose solution in acidic water.
Sucrose solutions in Table 5, a sample of Rebaudioside M in acidic water and a sample of compound 1 and Rebaudioside M in acidic water were given to panelists. Panelists were asked to evaluate the sweetness of samples against 7%, 8%, 9%, and 10% sucrose solution and describe the differences in the taste profiles. Panelists were instructed to sip, evaluate the sweetness, and then spit the samples in cups provided for that purpose.

Data set [4] can be described thus: Solubility in water during sample preparation. Format: physicochemical. The note with it: 2.5 mg in 500 g water, initially, before microwave, sonication and agitation. The method, then: The sample was treated with Microwave (1 min), Sonication (15 min), and agitation (30 min) repeatedly until the solution became visually clear. The solution was cooled at room temperature and citric acid was added.

The mark [5] stands for this setting: 5 ppm compound 1 and 400 ppm Rebaudioside A in acidic water.
[6] abbreviates: 5 ppm compound 1 and 400 ppm Mogroside V in acidic water, both panelists.
[7] abbreviates: 5 ppm compound 1 and 320 ppm Rebaudioside M in acidic water.

`C[C@H](CC[C@@H](O[C@@H]1O[C@H](CO[C@@H]2O[C@H](CO)[C@@H](O)[C@H](O)[C@H]2O)[C@@H](O)[C@H](O)[C@H]1O[C@@H]1O[C@H](CO)[C@@H](O)[C@H](O)[C@H]1O)C(C)(C)O)[C@H]1CC[C@@]2(C)[C@@H]3CC=C4[C@@H](CC[C@H](O[C@@H]5O[C@H](CO[C@@H]6O[C@H](CO)[C@@H](O)[C@H](O)[C@H]6O)[C@@H](O)[C@H](O)[C@H]5O)C4(C)C)[C@]3(C)[C@H](O)C[C@]12C` [Mogroside V, reference compound]: the “sweetness, equally sweet to sucrose in acidic water” value (shortened to “sweetness, equally sweet to sucrose”) in the data set on panelists [1] (400 ppm Mogroside V in acidic water, without compound 1) was found to be 7 % sucrose.

Consider `C=C1C[C@@]23CC[C@H]4[C@@](C)(CCC[C@@]4(C)C(=O)O[C@@H]4O[C@H](CO)[C@@H](O)[C@H](O)[C@H]4O)[C@@H]2CC[C@]1(O[C@@H]1O[C@H](CO)[C@@H](O)[C@H](O[C@@H]2O[C@H](CO)[C@@H](O)[C@H](O)[C@H]2O)[C@H]1O[C@@H]1O[C@H](CO)[C@@H](O)[C@H](O)[C@H]1O)C3` [Rebaudioside A, reference compound], for which the “sweetness, equally sweet to sucrose” value in the data set on panelists [2] (400 ppm Rebaudioside A in acidic water, without compound 1) is recorded as 7 % sucrose.

With `C=C1C[C@@]23CC[C@H]4[C@@](C)(CCC[C@@]4(C)C(=O)O[C@@H]4O[C@H](CO)[C@@H](O)[C@H](O[C@@H]5O[C@H](CO)[C@@H](O)[C@H](O)[C@H]5O)[C@H]4O[C@@H]4O[C@H](CO)[C@@H](O)[C@H](O)[C@H]4O)[C@@H]2CC[C@]1(O[C@@H]1O[C@H](CO)[C@@H](O)[C@H](O[C@@H]2O[C@H](CO)[C@@H](O)[C@H](O)[C@H]2O)[C@H]1O[C@@H]1O[C@H](CO)[C@@H](O)[C@H](O)[C@H]1O)C3` [Rebaudioside M, reference compound], in the data set with panelists [3] (320 ppm Rebaudioside M in acidic water, without compound 1, two panelists), the “sweetness, equally sweet to sucrose” value turned out to be 8 % sucrose.

Take `CC(C)CC(=O)N1CCC[C@H](COc2cccc3c2C(N)=NS(=O)(=O)N3)C1` [compound 1, (S)-1-(3-(((4-amino-2,2-dioxido-1H-benzo[c][1,2,6]thiadiazin-5-yl)oxy)methyl)piperidin-1-yl)-3-methylbutan-1-one]: in data set [4], the solubility in water entry was “not completely soluble”. For the same compound, the entries for the “taste profile: bitterness” value with panelists [2] (setting [5]), with panelists [1] (setting [6]) and in the data set with panelists [3] (setting [7]) were “more bitter”, “not bitter” and “no bitterness”, respectively. Moreover, the “sweetness, equally sweet to sucrose” value in the data set on panelists [2] (setting [5]) is recorded as 7 % sucrose; with panelists [1] (5 ppm compound 1 and 400 ppm Mogroside V in acidic water) it was 10 % sucrose; in the data set with panelists [3] (5 ppm compound 1 and 320 ppm Rebaudioside M in acidic water, two panelists), 10 % sucrose. In addition, the sweetness enhancement entry in the data set on panelists [2] (5 ppm compound 1 in acidic water containing 400 ppm Rebaudioside A) is “does not enhance the sweetness”. For the same compound, the “taste profile: mouthfeel” value in the data set with panelists [1] (5 ppm compound 1 and 400 ppm Mogroside V in acidic water, compared to the sample with just Mogroside V, one panelist) is listed as “more mouthfeel”; with panelists [3] (setting [7]), “more mouthfeel”. For the same compound, the “taste profile: sweet linger” value in the data set with panelists [1] (setting [6]) is on record as “slight sweet linger”. For the same compound, the “taste profile: sweetness onset” value in the data set with panelists [1] (setting [6]) was “slower sweetness onset”. Also, the “sweetness against sucrose solution in acidic water” value in the data set on panelists [3] (5 ppm compound 1 alone in acidic water, two panelists) was less than 1.5 % sucrose.

The record behind these values is US11751592B2, “Sweetness and taste improvement of steviol glycoside or mogroside sweeteners” (The Coca-Cola Company, priority 2016, dated 2023).
